Assay results taken from ChEMBL document CHEMBL1153550, “In vitro study of Candida tropicalis isolates exhibiting paradoxical growth in the presence of high concentrations of caspofungin” (2007).
≈ marks a conversion by molar mass, not a printed value. Calls of active or inactive are those of the source. The rule behind the calls is not given here.

Assays:
Candida tropicalis [1] = test: Antifungal activity against 2 x 10^7 CFU/ml Candida tropicalis isolate 8 in RPMI 1640 medium after 24 hrs by broth microdilution method; type: functional; conditions: isolate 8, 24 h
Candida tropicalis [2] = test: Antifungal activity against > 2 x 10^7 CFU/ml Candida tropicalis ATCC 750 in antibiotic medium 3 assessed as partial growth after 24 hrs by broth microdilution method; type: functional, organism-based
Candida tropicalis [3] = test: Antifungal activity against 2 x 10^7 CFU/ml Candida tropicalis isolate 12 in antibiotic medium 3 after 24 hrs by broth microdilution method; type: functional; conditions: isolate 12, 24 h
Candida tropicalis [4] = test: Antifungal activity against 10^5 CFU/ml Candida tropicalis ATCC 750 in RPMI 1640 medium at 0.4 to 12.5 ug/ml treated for 24 hrs followed by incubation in drug free medium for 48 hrs by broth microdilution method; type: functional, organism-based
Candida tropicalis [5] = test: Antifungal activity against 10^5 CFU/ml Candida tropicalis isolate 3 in RPMI 1640 medium at 12.5 ug/ml treated for 48 hrs followed by incubation in drug free medium for 48 hrs by broth microdilution method; type: functional, organism-based
Candida tropicalis [6] = test: Antifungal activity against 2 x 10^7 CFU/ml Candida tropicalis isolate 5 in antibiotic medium 3 after 24 hrs by broth microdilution method; type: functional; conditions: isolate 5, 24 h
Candida tropicalis [7] = test: Antifungal activity against 10^5 CFU/ml Candida tropicalis isolate 5 in RPMI 1640 medium at 12.5 ug/ml treated for 48 hrs followed by incubation in drug free medium for 48 hrs by broth microdilution method; type: functional, organism-based
Candida tropicalis [8] = test: Fungistatic activity against Candida tropicalis clinical isolates at 12.5 ug/ml after 24 to 48 hrs by time-kill assay; type: functional, organism-based
Candida tropicalis [9] = test: Antifungal activity against 2 x 10^7 CFU/ml Candida tropicalis isolate 7 in RPMI 1640 medium after 24 hrs by broth microdilution method; type: functional; conditions: isolate 7, 24 h
Candida tropicalis [10] = test: Antifungal activity against 2 x 10^7 CFU/ml Candida tropicalis isolate 7 in antibiotic medium 3 after 24 hrs by broth microdilution method; type: functional; conditions: isolate 7, 24 h
Candida tropicalis [11] = test: Antifungal activity against 10^5 CFU/ml Candida tropicalis isolate 3 in RPMI 1640 medium at 12.5 ug/ml treated for 24 hrs followed by incubation in drug free medium for 48 hrs by broth microdilution method; type: functional, organism-based
Candida tropicalis [12] = test: Antifungal activity against 10^5 CFU/ml Candida tropicalis isolate 8 in RPMI 1640 medium at =< 0.09 ug/ml after 24 hrs followed by incubation in drug free medium for 48 hrs by broth microdilution method; type: functional, organism-based
Candida tropicalis [13] = test: Antifungal activity against Candida tropicalis isolate 8 in RPMI 1640 medium assessed as paradoxical growth at 12.5 ug/ml after 24 hrs by broth microdilution method; type: functional, organism-based
Candida tropicalis [14] = test: Antifungal activity against 2 x 10^7 CFU/ml Candida tropicalis isolate 13 in antibiotic medium 3 after 24 hrs by broth microdilution method; type: functional; conditions: isolate 13, 24 h
Candida tropicalis [15] = test: Antifungal activity against Candida tropicalis isolate 5 in RPMI 1640 medium assessed as paradoxical growth at 6.25 ug/ml after 48 hrs by broth microdilution method; type: functional, organism-based
Candida tropicalis [16] = test: Antifungal activity against 10^5 CFU/ml Candida tropicalis isolate 11 in RPMI 1640 medium at 12.5 ug/ml treated for 48 hrs followed by incubation in drug free medium for 48 hrs by broth microdilution method; type: functional, organism-based
Candida tropicalis [17] = test: Antifungal activity against 2 x 10^7 CFU/ml Candida tropicalis isolate 15 in RPMI 1640 medium after 24 hrs by broth microdilution method; type: functional; conditions: isolate 15, 24 h
Candida tropicalis [18] = test: Antifungal activity against Candida tropicalis isolate 4 in RPMI 1640 medium assessed as paradoxical growth at 6.25 ug/ml after 48 hrs by broth microdilution method; type: functional, organism-based
Candida tropicalis [19] = test: Antifungal activity Candida tropicalis ATCC 750 in RPMI 1640 medium at 0.19 to 6.25 ug/ml after 24 hrs by time-kill assay; type: functional, organism-based
Candida tropicalis [20] = test: Antifungal activity against Candida tropicalis ATCC 750 in RPMI 1640 medium assessed as paradoxical growth at 12.5 ug/ml after 24 hrs by broth microdilution method; type: functional, organism-based
Candida tropicalis [21] = test: Antifungal activity against 10^5 CFU/ml Candida tropicalis isolate 11 in RPMI 1640 medium at 12.5 ug/ml treated for 24 hrs followed by incubation in drug free medium for 48 hrs by broth microdilution method; type: functional, organism-based
Candida tropicalis [22] = test: Antifungal activity against > 2 x 10^7 CFU/ml Candida tropicalis isolate 5 in antibiotic medium 3 assessed as partial growth after 24 hrs by broth microdilution method; type: functional, organism-based
Candida tropicalis [23] = test: Antifungal activity against > 2 x 10^7 CFU/ml Candida tropicalis isolate 14 in antibiotic medium 3 assessed as partial growth after 24 hrs by broth microdilution method; type: functional, organism-based
Candida tropicalis [24] = test: Antifungal activity against 2 x 10^7 CFU/ml Candida tropicalis isolate 3 in antibiotic medium 3 after 24 hrs by broth microdilution method; type: functional; conditions: isolate 3, 24 h
Candida tropicalis [25] = test: Antifungal activity against 2 x 10^7 CFU/ml Candida tropicalis isolate 6 in RPMI 1640 medium after 24 hrs by broth microdilution method; type: functional; conditions: isolate 6, 24 h
Candida tropicalis [26] = test: Antifungal activity against Candida tropicalis isolate 15 in RPMI 1640 medium assessed as paradoxical growth at 12.5 ug/ml after 48 hrs by broth microdilution method; type: functional, organism-based
Candida tropicalis [27] = test: Antifungal activity against > 2 x 10^7 CFU/ml Candida tropicalis isolate 10 in antibiotic medium 3 assessed as partial growth after 24 hrs by broth microdilution method; type: functional, organism-based
Candida tropicalis [28] = test: Antifungal activity against 10^5 CFU/ml Candida tropicalis isolate 1 in RPMI 1640 medium at 12.5 ug/ml treated for 48 hrs followed by incubation in drug free medium for 48 hrs by broth microdilution method; type: functional, organism-based
Candida tropicalis [29] = test: Antifungal activity against 10^5 CFU/ml Candida tropicalis isolate 2 in RPMI 1640 medium at 12.5 ug/ml treated for 24 hrs followed by incubation in drug free medium for 48 hrs by broth microdilution method; type: functional, organism-based
Candida tropicalis [30] = test: Antifungal activity against 2 x 10^7 CFU/ml Candida tropicalis isolate 12 in RPMI 1640 medium after 24 hrs by broth microdilution method; type: functional; conditions: isolate 12, 24 h
Candida tropicalis [31] = test: Antifungal activity against > 2 x 10^7 CFU/ml Candida tropicalis isolate 2 in antibiotic medium 3 assessed as partial growth after 24 hrs by broth microdilution method; type: functional, organism-based
Candida tropicalis [32] = test: Antifungal activity against > 2 x 10^7 CFU/ml Candida tropicalis isolate 15 in RPMI 1640 medium assessed as partial growth after 24 hrs by broth microdilution method; type: functional, organism-based
Candida tropicalis [33] = test: Antifungal activity against 2 x 10^7 CFU/ml Candida tropicalis ATCC 750 in antibiotic medium 3 after 24 hrs by broth microdilution method; type: functional; conditions: ATCC 750, 24 h
Candida tropicalis [34] = test: Antifungal activity against Candida tropicalis isolate 6 in RPMI 1640 medium assessed as paradoxical growth at 12.5 ug/ml after 48 hrs by broth microdilution method; type: functional, organism-based
Candida tropicalis [35] = test: Antifungal activity against 2 x 10^7 CFU/ml Candida tropicalis isolate 5 in RPMI 1640 medium after 24 hrs by broth microdilution method; type: functional; conditions: isolate 5, 24 h
Candida tropicalis [36] = test: Antifungal activity against 2 x 10^7 CFU/ml Candida tropicalis isolate 15 in antibiotic medium 3 after 24 hrs by broth microdilution method; type: functional; conditions: isolate 15, 24 h

MIC (Candida tropicalis [1]): 0.024 mg/L (≈ 0.022 µM) | MIC (Candida tropicalis [3]): 0.024 mg/L (≈ 0.022 µM) | MIC (Candida tropicalis [6]): 0.024 mg/L (≈ 0.022 µM) | MIC (Candida tropicalis [9]): 0.024 mg/L (≈ 0.022 µM) | MIC (Candida tropicalis [10]): 0.024 mg/L (≈ 0.022 µM) | MIC (Candida tropicalis [14]): 0.024 mg/L (≈ 0.022 µM) | MIC (Candida tropicalis [17]): 0.024 mg/L (≈ 0.022 µM) | MIC (Candida tropicalis [24]): 0.024 mg/L (≈ 0.022 µM) | MIC (Candida tropicalis [25]): 0.024 mg/L (≈ 0.022 µM) | MIC (Candida tropicalis [30]): 0.024 mg/L (≈ 0.022 µM) | MIC (Candida tropicalis [33]): 0.024 mg/L (≈ 0.022 µM) | MIC (Candida tropicalis [35]): 0.024 mg/L (≈ 0.022 µM) | MIC (Candida tropicalis [36]): 0.024 mg/L (≈ 0.022 µM)
SMILES: CC[C@H](C)C[C@H](C)CCCCCCCCC(=O)N[C@H]1C[C@@H](O)[C@@H](NCCN)NC(=O)[C@@H]2[C@@H](O)CCN2C(=O)[C@H]([C@H](O)CCN)NC(=O)[C@H]([C@H](O)[C@@H](O)c2ccc(O)cc2)NC(=O)[C@@H]2C[C@@H](O)CN2C(=O)[C@H]([C@@H](C)O)NC1=O [CASPOFUNGIN]
Activity (Candida tropicalis [2]): inactive | Activity (Candida tropicalis [4]): inactive | Activity (Candida tropicalis [5]): inactive | Activity (Candida tropicalis [7]): inactive | Activity (Candida tropicalis [8]): Active | Activity (Candida tropicalis [11]): inactive | Activity (Candida tropicalis [12]): Active | Activity (Candida tropicalis [13]): inactive | Activity (Candida tropicalis [15]): inactive | Activity (Candida tropicalis [16]): inactive | Activity (Candida tropicalis [18]): inactive | Activity (Candida tropicalis [19]): Active | Activity (Candida tropicalis [20]): inactive | Activity (Candida tropicalis [21]): inactive | Activity (Candida tropicalis [22]): inactive | Activity (Candida tropicalis [23]): inactive | Activity (Candida tropicalis [26]): Active | Activity (Candida tropicalis [27]): inactive | Activity (Candida tropicalis [28]): inactive | Activity (Candida tropicalis [29]): inactive | Activity (Candida tropicalis [31]): inactive | Activity (Candida tropicalis [32]): inactive | Activity (Candida tropicalis [34]): inactive
